Laboratory results reported in patent publication US11213511B2, “Composition for preventing or treating SARS coronavirus 2 infection disease” (priority 2020, dated 2022).
Where “and” joins values, the source holds several entries; their conditions need not be identical. Identical values can stand only once. Like-named read-outs stand apart in the source and are kept apart here.

Experiments:
SARS CoV-2 (NCCP-43326) [1] = type: cell-based
SARS CoV-2 (NCCP-43326) [2] = assay: Observation of cell morphology according to medicament treatment; type: cell-based; details: 10 to 20 μM, VERO cell, FIG. 3
SARS-CoV-2 3CL protease = SARS-CoV-2 3CL protease (Severe acute respiratory syndrome coronavirus 2, UniProt P0DTD1); assay: biochemical; details: for inhibition at 30 µM: read-out: activity of 3CL protease inhibited
[3] = biological target: T1, ACE2 and SARS-CoV-2 Spike S1 protein binding (UniProt P0DTC2+Q9BYF1); assay: biochemical
T1 construct: Spike S1, Fc fusion, Avi-tag, Biotin Labeled (SARS-CoV-2) (BPS Bioscience, 100679); Fc fusion; Avi-tag (biotin labeled); His-Tag (Eu-labeled); purchased BPS Bioscience 100705 (ACE2); 100679 (Spike S1)

[4] = test system: severe acute respiratory syndrome coronavirus 2; assay: Medicament efficacy of Sulfinpyrazone in SARS coronavirus 2 infected animal model (Example 7); type: in vivo, Syrian Hamster; details: 50 MPK (50 mg/kg/day), PO twice daily, 4 days of continuous administration, vs virus alone infected group
VERO cell = details: for Viability: 72 hours, MTT; for cell survival: 10 to 20 μM
[5] = test system: severe acute respiratory syndrome coronavirus 2; set-up: species or system Syrian Hamster; details: hamster, in vivo

T1 sequence (Q9BYF1 18-740, one chain of several): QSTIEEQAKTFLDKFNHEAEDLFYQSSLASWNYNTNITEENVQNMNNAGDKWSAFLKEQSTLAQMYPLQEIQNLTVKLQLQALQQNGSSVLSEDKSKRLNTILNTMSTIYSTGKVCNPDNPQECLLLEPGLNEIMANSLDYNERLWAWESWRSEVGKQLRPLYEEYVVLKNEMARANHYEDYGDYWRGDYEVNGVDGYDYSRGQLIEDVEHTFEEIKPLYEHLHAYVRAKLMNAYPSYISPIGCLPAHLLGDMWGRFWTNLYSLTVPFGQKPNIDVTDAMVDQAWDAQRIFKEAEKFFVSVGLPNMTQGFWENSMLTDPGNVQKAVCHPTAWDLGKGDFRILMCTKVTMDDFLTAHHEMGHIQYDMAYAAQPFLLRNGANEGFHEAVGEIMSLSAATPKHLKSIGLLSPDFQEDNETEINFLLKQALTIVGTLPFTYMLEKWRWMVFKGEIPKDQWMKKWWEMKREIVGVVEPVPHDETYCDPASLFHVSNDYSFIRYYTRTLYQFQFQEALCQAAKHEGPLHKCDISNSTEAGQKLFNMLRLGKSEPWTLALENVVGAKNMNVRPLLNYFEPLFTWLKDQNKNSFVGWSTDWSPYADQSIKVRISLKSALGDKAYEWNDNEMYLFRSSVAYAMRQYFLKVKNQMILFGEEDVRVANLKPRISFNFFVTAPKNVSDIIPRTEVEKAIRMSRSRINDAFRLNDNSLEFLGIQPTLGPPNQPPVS

O=C1C(CC[S+]([O-])c2ccccc2)C(=O)N(c2ccccc2)N1c1ccccc1 (racemic) [Sulfinpyrazone, 1,2-diphenyl-4-[2-(phenylsulfinyl)ethyl]pyrazolidine-3,5-dione]
CPE Reduction (%) (SARS CoV-2 (NCCP-43326) [1]): 33.1 ± 7.0% and 40.7 ± 8.0%
change in cell morphology of virus-infected cells (SARS CoV-2 (NCCP-43326) [2]): morphology change was small
activity at 0.001 µM (SARS-CoV-2 3CL protease): 96%
activity at 0.003 µM (SARS-CoV-2 3CL protease): 104%
activity at 0.01 µM (SARS-CoV-2 3CL protease): 100%
activity at 0.03 µM (SARS-CoV-2 3CL protease): 103%
activity at 0.1 µM (SARS-CoV-2 3CL protease): 103%
activity at 0.3 µM (SARS-CoV-2 3CL protease): 102%
activity at 1 µM (SARS-CoV-2 3CL protease): 99%
activity at 3 µM (SARS-CoV-2 3CL protease): 92%
activity at 10 µM (SARS-CoV-2 3CL protease): 90%
activity at 30 µM (SARS-CoV-2 3CL protease): 82%
% Activity (SARS-CoV-2 3CL protease; 0.001 µM): 101%
% Activity (SARS-CoV-2 3CL protease; 0.003 µM): 101%
% Activity (SARS-CoV-2 3CL protease; 0.01 µM): 101%
% Activity (SARS-CoV-2 3CL protease; 0.3 µM): 94%
% Activity (SARS-CoV-2 3CL protease; 1 µM): 98%
% Activity (SARS-CoV-2 3CL protease; 3 µM): 95%
% Activity (SARS-CoV-2 3CL protease; 10 µM): 95%
% Activity (SARS-CoV-2 3CL protease; 30 µM): 80%
inhibition at 30 µM (SARS-CoV-2 3CL protease): ~20%
TR-FRET ratio [3]: 0.96 and 0.97 and 0.95 and 0.93 and 0.94
activity at 0.002 µM [3]: 96%
activity at 0.005 µM [3]: 97%
activity at 0.014 µM [3]: 100%
activity at 0.041 µM [3]: 98%
activity at 0.123 µM [3]: 100%
activity at 0.37 µM [3]: 99%
activity at 1.111 µM [3]: 101%
activity at 3.333 µM [3]: 98%
activity at 10 µM [3]: 100%
activity at 30 µM [3]: 99%
efficacy in inhibiting the binding of ACE2 and Spike S1 proteins [3]: no efficacy
% Activity ([3]; 0.002 µM): 95%
% Activity ([3]; 10 µM): 95%
Gross pneumonia lesion amelioration percentage (%) [4]: 15.6%
Viability (VERO cell; 10 μM): 108.3 ± 0.4%
Viability (VERO cell; 20 μM): 99.6 ± 7.3%
cell survival (VERO cell): excellent cell survival

COc1cc(C(=O)NS(=O)(=O)c2ccccc2C)ccc1Cc1cn(C)c2ccc(NC(=O)OC3CCCC3)cc12 [Zafirlukast, cyclopentyl3-{2-methoxy-4-[(o-tolylsulfonyl)carbamoyl]benzyl}-1-methyl-1H-indol-5-ylcarbamate]
CPE Reduction (%) (SARS CoV-2 (NCCP-43326) [1]): 60.1 ± 7.1% and 75.6 ± 3.9%
change in cell morphology of virus-infected cells (SARS CoV-2 (NCCP-43326) [2]): morphology change was small
activity at 0.001 µM (SARS-CoV-2 3CL protease): 100%
activity at 0.003 µM (SARS-CoV-2 3CL protease): 95%
activity at 0.01 µM (SARS-CoV-2 3CL protease): 94%
activity at 0.03 µM (SARS-CoV-2 3CL protease): 97%
activity at 0.1 µM (SARS-CoV-2 3CL protease): 95%
activity at 0.3 µM (SARS-CoV-2 3CL protease): 95%
activity at 1 µM (SARS-CoV-2 3CL protease): 90%
activity at 3 µM (SARS-CoV-2 3CL protease): 89%
activity at 10 µM (SARS-CoV-2 3CL protease): 78%
activity at 30 µM (SARS-CoV-2 3CL protease): 52%
% Activity (SARS-CoV-2 3CL protease; 0.003 µM): 98%
% Activity (SARS-CoV-2 3CL protease; 0.01 µM): 103%
% Activity (SARS-CoV-2 3CL protease; 0.03 µM): 99%
% Activity (SARS-CoV-2 3CL protease; 0.3 µM): 98%
% Activity (SARS-CoV-2 3CL protease; 3 µM): 87%
% Activity (SARS-CoV-2 3CL protease; 10 µM): 77%
% Activity (SARS-CoV-2 3CL protease; 30 µM): 55%
inhibition at 30 µM (SARS-CoV-2 3CL protease): ≥ 45%
activity at 0.002 µM [3]: 91%
activity at 0.005 µM [3]: 96%
activity at 0.014 µM [3]: 92%
activity at 0.041 µM [3]: 99%
activity at 0.123 µM [3]: 97%
activity at 0.37 µM [3]: 101%
activity at 1.111 µM [3]: 93%
activity at 3.333 µM [3]: 102%
activity at 10 µM [3]: 96%
activity at 30 µM [3]: 95%
efficacy in inhibiting the binding of ACE2 and Spike S1 proteins [3]: no efficacy
% Activity ([3]; 0.005 µM): 94%
% Activity ([3]; 10 µM): 98%
amelioration effects in the gross lung lesion [5]: very excellent amelioration effects
amelioration in bilateral pneumonia, pulmonary edema, and pulmonary bleeding aspects ([5]; po): excellent amelioration
treatment effect compared to the control medicament Remdesivir ([5]; po): superior treatment effect
Viability (VERO cell; 10 μM): 109.7 ± 2.8%
Viability (VERO cell; 20 μM): 89.3 ± 0.7%
cell survival (VERO cell): excellent cell survival

CCC(CC)COC(=O)[C@H](C)N[P@](=O)(OC[C@H]1O[C@@](C#N)(c2ccc3c(N)ncnn23)[C@H](O)[C@@H]1O)Oc1ccccc1 [Remdesivir]
gross cure rate [5]: 44.3%
